Molecule CCCCCCCC(=O)NCC(=O)O has a solubility (mole fraction) (in 2-butanone, 273.15 K) of 0.0123, a solubility (mole fraction) (in 2-butanone, 278.15 K) of 0.0153 and a solubility (mole fraction) (in 2-butanone, 283.15 K) of 0.0199. It also gave a solubility (mole fraction) (in 2-butanone, 288.35 K) of 0.0266, a solubility (mole fraction) (in 2-butanone, 293.05 K) of 0.0304 and a solubility (mole fraction) (in 2-butanone, 298.15 K) of 0.0379. For the same molecule, the solubility (mole fraction) (in 2-butanone, 303.15 K) was 0.0457, the solubility (mole fraction) (in 2-butanone, 308.05 K) was 0.0561 and the solubility (mole fraction) (in 2-butanone, 313.25 K) was 0.0667. The solubility (mole fraction) (in 2-butanone, 317.65 K) was 0.0806, the solubility (mole fraction) (in 2-butanone, 323.15 K) was 0.0951 and the solubility (mole fraction) (in 2-pentanone, 273.15 K) was 0.00491. For the same molecule, the solubility (mole fraction) (in 2-pentanone, 278.15 K) was 0.00666, the solubility (mole fraction) (in 2-pentanone, 283.15 K) was 0.00984 and the solubility (mole fraction) (in 2-pentanone, 288.35 K) was 0.0148. For the same molecule, the solubility (mole fraction) (in 2-pentanone, 293.05 K) was 0.0178, the solubility (mole fraction) (in 2-pentanone, 298.15 K) was 0.0244 and the solubility (mole fraction) (in 2-pentanone, 303.15 K) was 0.032. It also gave a solubility (mole fraction) (in 2-pentanone, 308.05 K) of 0.0431, a solubility (mole fraction) (in 2-pentanone, 313.25 K) of 0.0552 and a solubility (mole fraction) (in 2-pentanone, 317.65 K) of 0.0723. It also gave a solubility (mole fraction) (in 2-pentanone, 323.15 K) of 0.0915, a solubility (mole fraction) (in acetone, 273.15 K) of 0.0146 and a solubility (mole fraction) (in acetone, 278.15 K) of 0.0189. It also gave a solubility (mole fraction) (in acetone, 283.15 K) of 0.0261, a solubility (mole fraction) (in acetone, 288.35 K) of 0.0369 and a solubility (mole fraction) (in acetone, 293.05 K) of 0.0432. For the same molecule, the solubility (mole fraction) (in acetone, 298.15 K) was 0.0562, the solubility (mole fraction) (in acetone, 303.15 K) was 0.0706 and the solubility (mole fraction) (in acetone, 308.05 K) was 0.0905. For the same molecule, the solubility (mole fraction) (in acetone, 313.25 K) was 0.111, the solubility (mole fraction) (in acetone, 317.65 K) was 0.14 and the solubility (mole fraction) (in acetone, 323.15 K) was 0.171. It also gave a solubility (mole fraction) (in cyclohexanone, 273.15 K) of 0.0112, a solubility (mole fraction) (in cyclohexanone, 278.15 K) of 0.0149 and a solubility (mole fraction) (in cyclohexanone, 283.15 K) of 0.0214. For the same molecule, the solubility (mole fraction) (in cyclohexanone, 288.35 K) was 0.0315, the solubility (mole fraction) (in cyclohexanone, 293.05 K) was 0.0378 and the solubility (mole fraction) (in cyclohexanone, 298.15 K) was 0.0508. The solubility (mole fraction) (in cyclohexanone, 303.15 K) was 0.0656, the solubility (mole fraction) (in cyclohexanone, 308.05 K) was 0.0866 and the solubility (mole fraction) (in cyclohexanone, 313.25 K) was 0.11. The solubility (mole fraction) (in cyclohexanone, 317.65 K) was 0.141, the solubility (mole fraction) (in cyclohexanone, 323.15 K) was 0.177 and the solubility (mole fraction) (in cyclopentanone, 273.15 K) was 0.0144. It also gave a solubility (mole fraction) (in cyclopentanone, 278.15 K) of 0.019, a solubility (mole fraction) (in cyclopentanone, 283.15 K) of 0.0269 and a solubility (mole fraction) (in cyclopentanone, 288.35 K) of 0.039. For the same molecule, the solubility (mole fraction) (in cyclopentanone, 293.05 K) was 0.0464, the solubility (mole fraction) (in cyclopentanone, 298.15 K) was 0.0616 and the solubility (mole fraction) (in cyclopentanone, 303.15 K) was 0.0789. For the same molecule, the solubility (mole fraction) (in cyclopentanone, 308.05 K) was 0.103, the solubility (mole fraction) (in cyclopentanone, 313.25 K) was 0.129 and the solubility (mole fraction) (in cyclopentanone, 317.65 K) was 0.164. For the same molecule, the solubility (mole fraction) (in cyclopentanone, 323.15 K) was 0.203, the solubility (mole fraction) (in ethanol, 273.15 K) was 0.0116 and the solubility (mole fraction) (in ethanol, 278.15 K) was 0.0176. It also gave a solubility (mole fraction) (in ethanol, 283.15 K) of 0.0266, a solubility (mole fraction) (in ethanol, 288.35 K) of 0.0401 and a solubility (mole fraction) (in ethanol, 293.05 K) of 0.0575. For the same molecule, the solubility (mole fraction) (in ethanol, 298.15 K) was 0.0833, the solubility (mole fraction) (in ethanol, 303.15 K) was 0.119 and the solubility (mole fraction) (in ethanol, 308.05 K) was 0.168. The solubility (mole fraction) (in ethanol, 313.25 K) was 0.237, the solubility (mole fraction) (in ethanol, 317.65 K) was 0.314 and the solubility (mole fraction) (in ethanol, 323.15 K) was 0.447. It also gave a solubility (mole fraction) (in ethyl acetate, 273.15 K) of 0.00218, a solubility (mole fraction) (in ethyl acetate, 278.15 K) of 0.00301 and a solubility (mole fraction) (in ethyl acetate, 283.15 K) of 0.00455. For the same molecule, the solubility (mole fraction) (in ethyl acetate, 288.35 K) was 0.00705, the solubility (mole fraction) (in ethyl acetate, 293.05 K) was 0.00866 and the solubility (mole fraction) (in ethyl acetate, 298.15 K) was 0.0121. It also gave a solubility (mole fraction) (in ethyl acetate, 303.15 K) of 0.0162, a solubility (mole fraction) (in ethyl acetate, 308.05 K) of 0.0223 and a solubility (mole fraction) (in ethyl acetate, 313.25 K) of 0.029. For the same molecule, the solubility (mole fraction) (in ethyl acetate, 317.65 K) was 0.0389, the solubility (mole fraction) (in ethyl acetate, 323.15 K) was 0.0502 and the solubility (mole fraction) (in ethyl formate, 273.15 K) was 0.0016. For the same molecule, the solubility (mole fraction) (in ethyl formate, 278.15 K) was 0.00226, the solubility (mole fraction) (in ethyl formate, 283.15 K) was 0.00348 and the solubility (mole fraction) (in ethyl formate, 288.35 K) was 0.00555. For the same molecule, the solubility (mole fraction) (in ethyl formate, 293.05 K) was 0.00688, the solubility (mole fraction) (in ethyl formate, 298.15 K) was 0.00981 and the solubility (mole fraction) (in ethyl formate, 303.15 K) was 0.0133. For the same molecule, the solubility (mole fraction) (in ethyl formate, 308.05 K) was 0.0186, the solubility (mole fraction) (in ethyl formate, 313.25 K) was 0.0247 and the solubility (mole fraction) (in ethyl formate, 317.65 K) was 0.0336. The solubility (mole fraction) (in ethyl formate, 323.15 K) was 0.0439, the solubility (mole fraction) (in isobutanol, 273.15 K) was 0.0204 and the solubility (mole fraction) (in isobutanol, 278.15 K) was 0.0259. The solubility (mole fraction) (in isobutanol, 283.15 K) was 0.0327, the solubility (mole fraction) (in isobutanol, 288.35 K) was 0.0412 and the solubility (mole fraction) (in isobutanol, 293.05 K) was 0.0503. It also gave a solubility (mole fraction) (in isobutanol, 298.15 K) of 0.0622, a solubility (mole fraction) (in isobutanol, 303.15 K) of 0.0762 and a solubility (mole fraction) (in isobutanol, 308.05 K) of 0.0919. It also gave a solubility (mole fraction) (in isobutanol, 313.25 K) of 0.112, a solubility (mole fraction) (in isobutanol, 317.65 K) of 0.131 and a solubility (mole fraction) (in isobutanol, 323.15 K) of 0.159. For the same molecule, the solubility (mole fraction) (in isopentanol, 273.15 K) was 0.0276, the solubility (mole fraction) (in isopentanol, 278.15 K) was 0.0347 and the solubility (mole fraction) (in isopentanol, 283.15 K) was 0.0434. It also gave a solubility (mole fraction) (in isopentanol, 288.35 K) of 0.0543, a solubility (mole fraction) (in isopentanol, 293.05 K) of 0.0657 and a solubility (mole fraction) (in isopentanol, 298.15 K) of 0.0805. It also gave a solubility (mole fraction) (in isopentanol, 303.15 K) of 0.0978, a solubility (mole fraction) (in isopentanol, 308.05 K) of 0.117 and a solubility (mole fraction) (in isopentanol, 313.25 K) of 0.142. The solubility (mole fraction) (in isopentanol, 317.65 K) was 0.166, the solubility (mole fraction) (in isopentanol, 323.15 K) was 0.2 and the solubility (mole fraction) (in isopropanol, 273.15 K) was 0.0153. The solubility (mole fraction) (in isopropanol, 278.15 K) was 0.0193, the solubility (mole fraction) (in isopropanol, 283.15 K) was 0.0239 and the solubility (mole fraction) (in isopropanol, 288.35 K) was 0.0298. For the same molecule, the solubility (mole fraction) (in isopropanol, 293.05 K) was 0.0362, the solubility (mole fraction) (in isopropanol, 298.15 K) was 0.0441 and the solubility (mole fraction) (in isopropanol, 303.15 K) was 0.0533. For the same molecule, the solubility (mole fraction) (in isopropanol, 308.05 K) was 0.064, the solubility (mole fraction) (in isopropanol, 313.25 K) was 0.0769 and the solubility (mole fraction) (in isopropanol, 317.65 K) was 0.0895. For the same molecule, the solubility (mole fraction) (in isopropanol, 323.15 K) was 0.108, the solubility (mole fraction) (in methanol, 273.15 K) was 0.0347 and the solubility (mole fraction) (in methanol, 278.15 K) was 0.0478. It also gave a solubility (mole fraction) (in methanol, 283.15 K) of 0.0653, a solubility (mole fraction) (in methanol, 288.35 K) of 0.0891 and a solubility (mole fraction) (in methanol, 293.05 K) of 0.117. For the same molecule, the solubility (mole fraction) (in methanol, 298.15 K) was 0.156, the solubility (mole fraction) (in methanol, 303.15 K) was 0.204 and the solubility (mole fraction) (in methanol, 308.05 K) was 0.263. For the same molecule, the solubility (mole fraction) (in methanol, 313.25 K) was 0.343, the solubility (mole fraction) (in methanol, 317.65 K) was 0.425 and the solubility (mole fraction) (in methanol, 323.15 K) was 0.555. It also gave a solubility (mole fraction) (in methyl acetate, 273.15 K) of 0.00203, a solubility (mole fraction) (in methyl acetate, 278.15 K) of 0.00288 and a solubility (mole fraction) (in methyl acetate, 283.15 K) of 0.00448. It also gave a solubility (mole fraction) (in methyl acetate, 288.35 K) of 0.00718, a solubility (mole fraction) (in methyl acetate, 293.05 K) of 0.00895 and a solubility (mole fraction) (in methyl acetate, 298.15 K) of 0.0128. For the same molecule, the solubility (mole fraction) (in methyl acetate, 303.15 K) was 0.0174, the solubility (mole fraction) (in methyl acetate, 308.05 K) was 0.0245 and the solubility (mole fraction) (in methyl acetate, 313.25 K) was 0.0327. The solubility (mole fraction) (in methyl acetate, 317.65 K) was 0.0444, the solubility (mole fraction) (in methyl acetate, 323.15 K) was 0.0586 and the solubility (mole fraction) (in n-butanol, 273.15 K) was 0.0228. The solubility (mole fraction) (in n-butanol, 278.15 K) was 0.0313, the solubility (mole fraction) (in n-butanol, 283.15 K) was 0.0425 and the solubility (mole fraction) (in n-butanol, 288.35 K) was 0.0577. The solubility (mole fraction) (in n-butanol, 293.05 K) was 0.0755, the solubility (mole fraction) (in n-butanol, 298.15 K) was 0.0993 and the solubility (mole fraction) (in n-butanol, 303.15 K) was 0.13. The solubility (mole fraction) (in n-butanol, 308.05 K) was 0.167, the solubility (mole fraction) (in n-butanol, 313.25 K) was 0.217 and the solubility (mole fraction) (in n-butanol, 317.65 K) was 0.268. For the same molecule, the solubility (mole fraction) (in n-butanol, 323.15 K) was 0.347, the solubility (mole fraction) (in n-pentanol, 273.15 K) was 0.0226 and the solubility (mole fraction) (in n-pentanol, 278.15 K) was 0.0308. The solubility (mole fraction) (in n-pentanol, 283.15 K) was 0.0413, the solubility (mole fraction) (in n-pentanol, 288.35 K) was 0.0559 and the solubility (mole fraction) (in n-pentanol, 293.05 K) was 0.0724. The solubility (mole fraction) (in n-pentanol, 298.15 K) was 0.095, the solubility (mole fraction) (in n-pentanol, 303.15 K) was 0.123 and the solubility (mole fraction) (in n-pentanol, 308.05 K) was 0.157. For the same molecule, the solubility (mole fraction) (in n-pentanol, 313.25 K) was 0.202, the solubility (mole fraction) (in n-pentanol, 317.65 K) was 0.249 and the solubility (mole fraction) (in n-pentanol, 323.15 K) was 0.32. The solubility (mole fraction) (in n-propanol, 273.15 K) was 0.0174, the solubility (mole fraction) (in n-propanol, 278.15 K) was 0.0254 and the solubility (mole fraction) (in n-propanol, 283.15 K) was 0.0363. For the same molecule, the solubility (mole fraction) (in n-propanol, 288.35 K) was 0.0522, the solubility (mole fraction) (in n-propanol, 293.05 K) was 0.0715 and the solubility (mole fraction) (in n-propanol, 298.15 K) was 0.1. The solubility (mole fraction) (in n-propanol, 303.15 K) was 0.137, the solubility (mole fraction) (in n-propanol, 308.05 K) was 0.185 and the solubility (mole fraction) (in n-propanol, 313.25 K) was 0.251. For the same molecule, the solubility (mole fraction) (in n-propanol, 317.65 K) was 0.323 and the solubility (mole fraction) (in n-propanol, 323.15 K) was 0.439.

Reference: BigSolDB 2.1
